Measured values taken from US20240092835A1, “NOVEL PEPTIDES CAPABLE OF ALTERING NK CELL ACTIVITY” (Massachusetts Institute of Technology, priority 2022, published 2024).
One block for each sequence: values may come before it.

Assays:
[1] = test system: NKG2A−/NKG2C+ NK cells; assay: NK cell activation markers in NKG2A-/NKG2C+ NK cells incubated with peptide and K562 expressing HLA-E (activation); assay type: cell-based, human; settings: for effect on NKG2A−/NKG2C+ NK cell activation (in words): K562 expressing HLA-E, CD107a, IFNG, TNF, CCL3; for percentage of CCL3+ NK cells / percentage of CD107+ NK cells / percentage of IFNG+ NK cells / percentage of TNF+ NK cells: NKG2A-/NKG2C+ NK cells, K562/HLA-E
In short: (§1)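 Human myelogenous leukemia K562 cells displaying HLA-E carry the test peptides (human or HCMV origin) and are presented to NK cells; surface activation markers are scored by percent positive cells.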

[2] = test system: NKG2A−/NKG2C− NK cells; assay: NK cell activation markers in control NKG2A-/NKG2C- NK cells incubated with peptide and K562 expressing HLA-E; assay type: cell-based, human
In short: as §1

[3] = test system: NKG2A+/NKG2C− NK cells; assay: NK cell activation markers in NKG2A+/NKG2C- NK cells incubated with peptide and K562 expressing HLA-E (inhibition); assay type: cell-based, human; settings: for effect on NKG2A+/NKG2C− NK cell inhibition (in words): K562 expressing HLA-E, CD107a, IFNG, TNF, CCL3; for percentage of CCL3+ NK cells / percentage of CD107a+ NK cells / percentage of IFNG+ NK cells / percentage of TNF+ NK cells: NKG2A+/NKG2C- NK cells, K562/HLA-E
In short: as §1

[4] = biological target: T1, HLA-E (Homo sapiens, UniProt P13747); assay: HLA-E surface stabilization assay with RMA-S/HLA-E cells; assay type: cell-based; settings: 30 μM peptide, 16 hours; for HLA-E surface expression stability (GeoMFI): anti-HLA-E antibody
T1 construct: expressed in transfected cells; host or cells: RMA-S/HLA-E cells (antigen processing-defective lymphoma cell line)
Description: HLA-E surface expression was assessed by measuring geometric mean fluorescence intensity (GeoMFI) in RMA-S cells following immunofluorescence staining with an anti-HLA-E antibody (Table 14). Increased GeoMFI was indicative of increased HLA-E surface expression stability following novel peptide exposures (FIG. 3).

Sequence: VLPHRTQFL [CMV1, novel CMV-derived peptide UL120 72-80, Merlin]
effect on NKG2A−/NKG2C+ NK cell activation (in words) [1]: strong inhibitory and activating effects | effect on NKG2A−/NKG2C+ NK cell activation (in words) ([1]; listed as SEQ ID NO. 15): strong activating effects | percentage of CCL3+ NK cells ([1]; Trial 1): 80.1% | percentage of CD107+ NK cells ([1]; Trial 1): 77.3% | percentage of IFNG+ NK cells ([1]; Trial 1): 66.3% | percentage of TNF+ NK cells ([1]; Trial 1): 53.3% | percentage of CCL3+ NK cells ([1]; Trial 2): 90.4% | percentage of CD107+ NK cells ([1]; Trial 2): 87.2% | percentage of IFNG+ NK cells ([1]; Trial 2): 82.8% | percentage of TNF+ NK cells ([1]; Trial 2): 76.1% | percentage of CCL3+ NK cells ([1]; Trial 3): 86.5% | percentage of CD107+ NK cells ([1]; Trial 3): 86.2% | percentage of IFNG+ NK cells ([1]; Trial 3): 78.5% | percentage of TNF+ NK cells ([1]; Trial 3): 68.8% | percentage of CCL3+ NK cells ([1]; Trial 4): 67.5% | percentage of CD107+ NK cells ([1]; Trial 4): 67.3% | percentage of IFNG+ NK cells ([1]; Trial 4): 58.2% | percentage of TNF+ NK cells ([1]; Trial 4): 51% | percentage of CCL3+ NK cells ([1]; Trial 5): 78.1% | percentage of CD107+ NK cells ([1]; Trial 5): 76.9% | percentage of IFNG+ NK cells ([1]; Trial 5): 69.5% | percentage of TNF+ NK cells ([1]; Trial 5): 66% | percentage of CCL3+ NK cells ([1]; Trial 6): 58.3% | percentage of CD107+ NK cells ([1]; Trial 6): 53.4% | percentage of IFNG+ NK cells ([1]; Trial 6): 42.5% | percentage of TNF+ NK cells ([1]; Trial 6): 33.3% | percentage CCL3+ NK cells ([2]; Trial 1): 29.9% | percentage CD107+ NK cells ([2]; Trial 1): 21.4% | percentage TNF+ NK cells ([2]; Trial 1): 2.62% | percentage of IFNG+ NK cells ([2]; Trial 1): 13.5% | percentage CCL3+ NK cells ([2]; Trial 2): 52.4% | percentage CD107+ NK cells ([2]; Trial 2): 32.5% | percentage TNF+ NK cells ([2]; Trial 2): 9.43% | percentage of IFNG+ NK cells ([2]; Trial 2): 27.7% | percentage CCL3+ NK cells ([2]; Trial 3): 47.3% | percentage CD107+ NK cells ([2]; Trial 3): 41.9% | percentage TNF+ NK cells ([2]; Trial 3): 13.6% | percentage of IFNG+ NK cells ([2]; Trial 3): 36.7% | percentage CCL3+ NK cells ([2]; Trial 4): 27.2% | percentage CD107+ NK cells ([2]; Trial 4): 25.7% | percentage TNF+ NK cells ([2]; Trial 4): 8.63% | percentage of IFNG+ NK cells ([2]; Trial 4): 17.4% | percentage CCL3+ NK cells ([2]; Trial 5): 26.6% | percentage CD107+ NK cells ([2]; Trial 5): 18.6% | percentage TNF+ NK cells ([2]; Trial 5): 6.68% | percentage of IFNG+ NK cells ([2]; Trial 5): 14.6% | percentage CCL3+ NK cells ([2]; Trial 6): 19.1% | percentage CD107+ NK cells ([2]; Trial 6): 14.5% | percentage TNF+ NK cells ([2]; Trial 6): 2.86% | percentage of IFNG+ NK cells ([2]; Trial 6): 8.57% | effect on NKG2A+/NKG2C− NK cell inhibition (in words) [3]: strong inhibitory | percentage of CCL3+ NK cells ([3]; Trial 1): 3.55% | percentage of CD107a+ NK cells ([3]; Trial 1): 2.12% | percentage of IFNG+ NK cells ([3]; Trial 1): 0.46% | percentage of TNF+ NK cells ([3]; Trial 1): 0.27% | percentage of CCL3+ NK cells ([3]; Trial 2): 7.82% | percentage of CD107a+ NK cells ([3]; Trial 2): 3.42% | percentage of IFNG+ NK cells ([3]; Trial 2): 1.08% | percentage of TNF+ NK cells ([3]; Trial 2): 0.39% | percentage of CCL3+ NK cells ([3]; Trial 3): 7.91% | percentage of CD107a+ NK cells ([3]; Trial 3): 4.2% | percentage of IFNG+ NK cells ([3]; Trial 3): 2.52% | percentage of TNF+ NK cells ([3]; Trial 3): 1.09% | percentage of CCL3+ NK cells ([3]; Trial 4): 3.5% | percentage of CD107a+ NK cells ([3]; Trial 4): 3.15% | percentage of IFNG+ NK cells ([3]; Trial 4): 0.93% | percentage of TNF+ NK cells ([3]; Trial 4): 0.7% | percentage of CCL3+ NK cells ([3]; Trial 5): 14.5% | percentage of CD107a+ NK cells ([3]; Trial 5): 3.92% | percentage of IFNG+ NK cells ([3]; Trial 5): 1.35% | percentage of TNF+ NK cells ([3]; Trial 5): 0.82% | percentage of CCL3+ NK cells ([3]; Trial 6): 3.86% | percentage of CD107a+ NK cells ([3]; Trial 6): 2.27% | percentage of IFNG+ NK cells ([3]; Trial 6): 0.82% | percentage of TNF+ NK cells ([3]; Trial 6): 0.34% | HLA-E surface expression stability (GeoMFI) ([4]; Trial 1): 2140 GeoMFI | HLA-E surface expression stability (GeoMFI) ([4]; Trial 2): 1714 GeoMFI | HLA-E surface expression stability (GeoMFI) ([4]; Trial 3): 2014 GeoMFI | HLA-E surface expression stability (GeoMFI) ([4]; Trial 4): 2421 GeoMFI | HLA-E surface expression stabilization strength, approximate GeoMFI ([4]; approximate value): approximately 2×10^3 GeoMFI

HLA-E surface expression stability (GeoMFI) ([4]; Trial 1): 3152 GeoMFI | HLA-E surface expression stability (GeoMFI) ([4]; Trial 2): 2914 GeoMFI | HLA-E surface expression stability (GeoMFI) ([4]; Trial 3): 3432 GeoMFI | HLA-E surface expression stability (GeoMFI) ([4]; Trial 4): 3610 GeoMFI
Sequence: VMPGRTLCF [human11, peptide TACR3 226-234 derived from the human proteome]
effect on NKG2A−/NKG2C+ NK cell activation (in words) [1]: strong activating effects | percentage of CCL3+ NK cells ([1]; Trial 1): 72.1% | percentage of CD107+ NK cells ([1]; Trial 1): 70.6% | percentage of IFNG+ NK cells ([1]; Trial 1): 63.1% | percentage of TNF+ NK cells ([1]; Trial 1): 57.2% | percentage of CCL3+ NK cells ([1]; Trial 2): 83.5% | percentage of CD107+ NK cells ([1]; Trial 2): 79.9% | percentage of IFNG+ NK cells ([1]; Trial 2): 76.4% | percentage of TNF+ NK cells ([1]; Trial 2): 71.3% | percentage of CCL3+ NK cells ([1]; Trial 3): 80.8% | percentage of CD107+ NK cells ([1]; Trial 3): 81% | percentage of IFNG+ NK cells ([1]; Trial 3): 76.8% | percentage of TNF+ NK cells ([1]; Trial 3): 72% | percentage of CCL3+ NK cells ([1]; Trial 4): 65% | percentage of CD107+ NK cells ([1]; Trial 4): 66.8% | percentage of IFNG+ NK cells ([1]; Trial 4): 59.4% | percentage of TNF+ NK cells ([1]; Trial 4): 53.6% | percentage of CCL3+ NK cells ([1]; Trial 5): 69.8% | percentage of CD107+ NK cells ([1]; Trial 5): 70.2% | percentage of IFNG+ NK cells ([1]; Trial 5): 65% | percentage of TNF+ NK cells ([1]; Trial 5): 62.5% | percentage of CCL3+ NK cells ([1]; Trial 6): 39.9% | percentage of CD107+ NK cells ([1]; Trial 6): 42.5% | percentage of IFNG+ NK cells ([1]; Trial 6): 35.3% | percentage of TNF+ NK cells ([1]; Trial 6): 33.5% | percentage CCL3+ NK cells ([2]; Trial 1): 27.1% | percentage CD107+ NK cells ([2]; Trial 1): 21.7% | percentage TNF+ NK cells ([2]; Trial 1): 3.75% | percentage of IFNG+ NK cells ([2]; Trial 1): 11.4% | percentage CCL3+ NK cells ([2]; Trial 2): 49.5% | percentage CD107+ NK cells ([2]; Trial 2): 28.7% | percentage TNF+ NK cells ([2]; Trial 2): 7.72% | percentage of IFNG+ NK cells ([2]; Trial 2): 21.3% | percentage CCL3+ NK cells ([2]; Trial 3): 44.1% | percentage CD107+ NK cells ([2]; Trial 3): 38.6% | percentage TNF+ NK cells ([2]; Trial 3): 14.8% | percentage of IFNG+ NK cells ([2]; Trial 3): 33.5% | percentage CCL3+ NK cells ([2]; Trial 4): 30.9% | percentage CD107+ NK cells ([2]; Trial 4): 28.9% | percentage TNF+ NK cells ([2]; Trial 4): 9.48% | percentage of IFNG+ NK cells ([2]; Trial 4): 18.5% | percentage CCL3+ NK cells ([2]; Trial 5): 18.3% | percentage CD107+ NK cells ([2]; Trial 5): 14.9% | percentage TNF+ NK cells ([2]; Trial 5): 3.82% | percentage of IFNG+ NK cells ([2]; Trial 5): 10.5% | percentage CCL3+ NK cells ([2]; Trial 6): 13.7% | percentage CD107+ NK cells ([2]; Trial 6): 14.8% | percentage TNF+ NK cells ([2]; Trial 6): 2.69% | percentage of IFNG+ NK cells ([2]; Trial 6): 6.09% | effect on NKG2A+/NKG2C− NK cell inhibition (in words) [3]: strong inhibitory | percentage of CCL3+ NK cells ([3]; Trial 1): 4.05% | percentage of CD107a+ NK cells ([3]; Trial 1): 0.35% | percentage of IFNG+ NK cells ([3]; Trial 1): 0.13% | percentage of TNF+ NK cells ([3]; Trial 1): 0.05% | percentage of CCL3+ NK cells ([3]; Trial 2): 7.9% | percentage of CD107a+ NK cells ([3]; Trial 2): 1.08% | percentage of IFNG+ NK cells ([3]; Trial 2): 0.53% | percentage of TNF+ NK cells ([3]; Trial 2): 0.21% | percentage of CCL3+ NK cells ([3]; Trial 3): 3.93% | percentage of CD107a+ NK cells ([3]; Trial 3): 1.25% | percentage of IFNG+ NK cells ([3]; Trial 3): 0.6% | percentage of TNF+ NK cells ([3]; Trial 3): 0.35% | percentage of CCL3+ NK cells ([3]; Trial 4): 1.77% | percentage of CD107a+ NK cells ([3]; Trial 4): 1.09% | percentage of IFNG+ NK cells ([3]; Trial 4): 0.29% | percentage of TNF+ NK cells ([3]; Trial 4): 0.23% | percentage of CCL3+ NK cells ([3]; Trial 5): 2.68% | percentage of CD107a+ NK cells ([3]; Trial 5): 0.66% | percentage of IFNG+ NK cells ([3]; Trial 5): 0.09% | percentage of TNF+ NK cells ([3]; Trial 5): 0% | percentage of CCL3+ NK cells ([3]; Trial 6): 1.02% | percentage of CD107a+ NK cells ([3]; Trial 6): 1.02% | percentage of IFNG+ NK cells ([3]; Trial 6): 0.05% | percentage of TNF+ NK cells ([3]; Trial 6): 0%
